{"source": "paper PMC4125160", "about": "“Neurotoxicity and Mode of Action of N, N-Diethyl-Meta-Toluamide (DEET)” (PLoS ONE, 2014)", "key": {"[1]": {"system": "neuromuscular junction of third instar Musca domestica larvae", "test": "Neuromuscular junction recordings of evoked EPSP in housefly larvae", "conditions": "for effect on evoked EPSP in words: toluene at 5 mM", "procedure": "Neuromuscular recordings of the evoked excitatory postsynaptic potential (EPSP) were performed on third instar housefly larvae, essentially as described previously. In short, the maggot was immobilized with pins, and the nervous and musculature systems were exposed. The preparation was then bathed in saline containing: 140 mM NaCl, 0.75 mM CaCl2, 5 mM KCl, 4 mM MgCl2, 5 mM NaHCO3, and 5 mM HEPES (pH = 7.25). The nerves were severed from the base of the CNS, which was removed, and a lateral nerve trunk innervating the longitudinal muscles was drawn into a suction electrode filled with saline. Stimuli were applied at 1 volt and of 0.2 sec duration to elicit a contraction from the longitudinal muscles. The stimulated muscle was then impaled with a recording glass capillary microelectrode filled with 1 M KCl to record effects on the evoked EPSP and membrane potential. Signals from all recordings were amplified and digitized with the use of the MacLab. Chemicals were applied to the preparation directly by hand pipetting 150 µL of solution into the bath volume of 150 µL."}, "[2]": {"target": "T1, Aedes aegypti AChE (AeAChE) (Aedes aegypti, UniProt Q6A2E2)", "T1 construct": "Homogenate enzymes were prepared from groups of ten non-blood fed adult female mosquitoes; from tissue; host or cells: whole adult female mosquitoes, supernatant of homogenate", "test": "AChE inhibition, Ellman assay", "assay_type": "biochemical", "excerpt": "(§1) In vitro biochemical assays utilized five acetylcholinesterase (AChE) enzymes. Recombinant human AChE (hAChE) was purchased from a commercial source (lyophilized powder, Sigma C1682, St. Louis, MO, USA). Homogenates to prepare Anopheles gambiae AChE (AgAChE) were obtained from the wild type G3 strain and the resistant AKRON strain (BEI Resources; http://www.beiresources.org/). AKRON mosquitoes (from Benin and donated by M. Akogbeto) have both knockdown resistance (kdr) to pyrethroids (L1014F sodium channel mutation) and the G119S AChE mutation (ace-1R), which confers resistance to carbamates, [15]. Both strains were cultured in the Emerging Pathogens Institute, University of Florida, Gainesville, FL, USA from eggs provided by the Center for Disease Control, Atlanta, GA, USA. Homogenates were also used to prepare Aedes aegypti AChE (AeAChE) from mosquitoes provided by the CMAVE, USDA-ARS, Gainesville, FL, USA; Musca domestica AChE (MdAChE) from flies cultured in the Department of Entomology and Nematology, Medical Entomology Laboratory, University of Florida, Gainesville, FL, USA); and Drosophila melanogaster AChE (DmAChE) from flies (Oregon-R strain) cultured in the Emerging Pathogens Institute, University of Florida, Gainesville, FL, USA. Homogenate enzymes were prepared from groups of ten non-blood fed adult female mosquitoes, five whole bodied Drosophila, or three Musca heads homogenized in 1 mL of ice-cold sodium phosphate buffer (0.1 M sodium phosphate, pH 7.8) with an electric motor driven glass tissue homogenizer. The homogenate was centrifuged at 5000×g using a Sorvall Fresco refrigerated centrifuge at 4 °C for 5 minutes. The supernatant was used as the enzyme source, and all enzyme preparations contained 0.3% (v/v) triton X-100 and 1 mg/ml BSA. Prior to use, the recombinant human enzyme was diluted 500-fold into sodium phosphate buffer containing triton X-100 and 1 mg/ml BSA.\n(§2) Inhibition of AChE was determined using the Ellman assay and was based on the method outlined in Carlier et al.. Briefly, enzyme solution (10 µL) was added to each well of a 96-well micro assay plate, along with 20 µL of inhibitor in DMSO/saline suspension, and 150 µL of sodium phosphate buffer. Final concentration of DMSO was 0.1% in all incubations. The plate was incubated at 25 °C for ten minutes. Ellman assay reagents, acetylthiocholine iodide (0.4 mM, final concentration) and 5,5′-dithiobis-(2-nitro)benzoic acid (0.3 mM, final concentration), were prepared fresh and 20 µL was added to the enzyme to initiate the reaction."}, "[3]": {"target": "T2, Anopheles gambiae AChE (AgAChE), wild type G3 strain (Anopheles gambiae, UniProt Q869C3)", "T2 construct": "Homogenate enzymes were prepared from groups of ten non-blood fed adult female mosquitoes; from tissue; host or cells: whole adult female mosquitoes, G3 strain, supernatant of homogenate", "test": "AChE inhibition, Ellman assay", "assay_type": "biochemical", "excerpt": "as §1, §2"}, "[4]": {"target": "T3, Drosophila melanogaster AChE (DmAChE) (Drosophila melanogaster, UniProt P07140)", "T3 construct": "five whole bodied Drosophila, or three Musca heads homogenized; from tissue; host or cells: whole Drosophila (Oregon-R), supernatant of homogenate", "test": "AChE inhibition, Ellman assay", "assay_type": "biochemical", "excerpt": "as §1, §2"}, "[5]": {"system": "housefly larval central nervous system", "test": "Neurophysiological recordings of CNS nerve discharge in housefly larvae", "parameters": "species or system Musca domestica", "conditions": "for pEC50: Musca domestica", "procedure": "Neurophysiological recordings were performed on the central and peripheral nervous systems of larval Musca domestica. Glass pipette electrodes were pulled from borosilicate glass capillaries on a P-1000 Flaming/Brown micropipette puller (Sutter Instrument, Novato CA, USA). For CNS recordings, it was first excised from the larvae and placed in a separate dish with physiological saline (200 µL) containing: 157 mM NaCl, 3 mM KCl, 2 mM CaCl2, and 4 mM HEPES, pH = 7.25. The CNS was manually transected posterior to the cerebral lobes to disrupt the blood-brain barrier and enhance chemical penetration. Any convenient peripheral nerve trunks were pulled into a recording suction electrode. Amplification and digitization of descending electrical activity originating from the CNS were converted on-line into a rate plot, expressed in Hz (MacLab analog to digital converter hardware and LabChart 7 software, ADInstruments, Colorado Springs, CO, USA). […] After a baseline was established, the CNS preparation was directly exposed to test compound by adding 200 µL of solution to the bath containing 200 µL of saline. The final concentration of solvent in the bath was 0.1% DMSO. Each concentration was recorded for 3–5 min prior to the addition of the next drug concentration. […] Each drug concentration was replicated 3-5 times."}, "[6]": {"system": "octopamine receptors of Sf21 cells", "test": "Calcium fluorescence assay in Sf21 cells", "assay_type": "cell-based", "conditions": "100 µM", "procedure": "The Sf21 insect cell line was obtained from a commercial supplier (Invitrogen, Carlsbad, CA, USA) and maintained in log phase culture in Trichoplusia ni Medium-Formulation Hink (TNM-FH) from Sigma-Aldrich (St. Louis, MO, USA), supplemented with 10% fetal bovine serum and 100 U/ml penicillin and streptomycin (Sigma-Aldrich). Cells were cultured in a non-humidified environment and maintained at 27°C. Sf21 cells were passaged every 3–5 days according to manufacturer's instructions, and maintained for about 30 passes before being replaced by fresh cells.\nSf21 cells were plated into 96-well black-wall, clear bottom plates 24 h before calcium fluorescence assay. […] The octopamine receptor antagonist phentolamine (100 µM) was co-incubated with cells for 1 h before drug challenge. Phentolamine, octopamine, and DEET were dissolved in water, while propoxur was dissolved in 100% DMSO to make a stock solution, and in the assay, DMSO was kept to 0.1%. The experiment was repeated in triplicate with different plates of cells to obtain means and SEMs for each experimental condition."}, "[7]": {"conditions": "mean, n = 3, read-out: IC50 (95% CI)"}}, "note": "pEC50, pIC50: −log10 of the molar value. Read-outs that look alike come from different tables or passages of the source."}
{"smiles": "CNC(=O)Oc1ccccc1OC(C)C", "note": "[propoxur]", "values": [{"measurement": "effect on evoked EPSP in words", "setting": "[1]", "value": "no effect"}, {"measurement": "pIC50", "setting": "[2]", "value": 6.43}, {"measurement": "pIC50", "setting": "[3]", "value": 6.35}, {"measurement": "pIC50", "setting": "[4]", "value": 7.08}, {"measurement": "pEC50", "setting": "[5]; Fig. 3C, read-out: EC50 for increasing spike frequency in the CNS", "value": 6.46}, {"measurement": "effect on calcium fluorescence in words", "setting": "[6]", "value": "no effect"}]}
{"smiles": "CCN(CC)C(=O)c1cccc(C)c1", "note": "[DEET, N, N-diethyl-meta-toluamide]", "values": [{"measurement": "time to complete block", "setting": "[1]; 10 mM added to the bath", "value": "approximately 120 seconds"}, {"measurement": "change in muscle membrane resting potential", "setting": "[1]; any concentration", "value": "Little or no change"}, {"measurement": "concentration at which half of the preparations were blocked", "setting": "[1]; evoked EPSP, all or none response", "value": "ca. 7 mM"}, {"measurement": "effect on evoked EPSP in words", "setting": "[1]", "value": "complete and rapid block"}, {"measurement": "sensitivity of enzyme in words", "setting": "[2]; concentrations up to 10 mM", "value": "completely insensitive"}, {"measurement": "pIC50", "setting": "[2]; [7]", "value": "< 2.00"}, {"measurement": "sensitivity of enzyme in words", "setting": "[3]; concentrations up to 10 mM", "value": "completely insensitive"}, {"measurement": "pIC50", "setting": "[3]; [7]", "value": "< 2.00"}, {"measurement": "pIC50", "setting": "[4]; [7]", "value": 2.00}, {"measurement": "threshold concentration for neuroexcitation", "setting": "[5]", "value": "about 50 µM"}, {"measurement": "pEC50", "setting": "[5]; abstract, read-out: EC50, excitatory effects", "value": 3.92}, {"measurement": "increase in calcium fluorescence", "setting": "[6]; over control cells", "value": "ca. 30%"}]}
